Assay results from ChEMBL document CHEMBL3758095, “Preliminary evaluation of fluoro-pegylated benzyloxybenzenes for quantification of β-amyloid plaques by positron emission tomography” (Eur J Med Chem, 2015).
Values belong to the compound of their own block, whether it stands above or below them. Activity calls are given as the source filed them. The calls are words filed in the database; no cut-off is given here.

Legend:
[1] = target: T1, Amyloid-beta precursor protein (Homo sapiens, UniProt P05067); test: Binding affinity to amyloid beta plaques in white matter of alzheimer's disease patient brain by DANIR 3b staining based autoradiographic analysis; format: tissue-based; details: tested as the 18F-labelled form
T1 sequence (P05067 whole entry): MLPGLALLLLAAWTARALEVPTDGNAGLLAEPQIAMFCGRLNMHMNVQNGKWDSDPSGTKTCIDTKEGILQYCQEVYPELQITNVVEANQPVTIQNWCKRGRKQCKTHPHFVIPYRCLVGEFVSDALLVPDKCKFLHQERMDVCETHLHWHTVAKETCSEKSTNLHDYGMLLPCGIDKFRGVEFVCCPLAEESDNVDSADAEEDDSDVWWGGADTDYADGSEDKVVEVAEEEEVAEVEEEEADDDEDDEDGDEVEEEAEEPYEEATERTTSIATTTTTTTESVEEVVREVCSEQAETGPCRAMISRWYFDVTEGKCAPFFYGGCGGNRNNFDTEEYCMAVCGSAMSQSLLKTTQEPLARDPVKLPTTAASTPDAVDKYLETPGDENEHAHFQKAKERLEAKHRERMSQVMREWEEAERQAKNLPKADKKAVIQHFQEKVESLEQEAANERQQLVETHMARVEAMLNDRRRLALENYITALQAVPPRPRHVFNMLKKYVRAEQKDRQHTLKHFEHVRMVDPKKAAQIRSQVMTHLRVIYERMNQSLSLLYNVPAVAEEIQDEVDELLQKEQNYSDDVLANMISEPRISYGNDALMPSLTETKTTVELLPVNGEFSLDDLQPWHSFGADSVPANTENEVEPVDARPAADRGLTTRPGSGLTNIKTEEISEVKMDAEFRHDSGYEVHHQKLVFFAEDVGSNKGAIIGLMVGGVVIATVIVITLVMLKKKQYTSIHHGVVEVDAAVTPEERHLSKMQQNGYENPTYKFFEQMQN

[2] = tested on: Mus musculus; test: In vivo binding affinity to amyloid beta plaques in C57BL6 Appswe/PSEN1 Tg mouse brain cortex at 1 mCi, iv after 20 mins by DANIR 3b staining based autoradiographic analysis; format: functional, organism-based; details: tested as the 18F-labelled form
[3] = tested on: Mus musculus; test: In vivo binding affinity to amyloid beta plaques in C57BL6 Appswe/PSEN1 Tg mouse hippocampus at 1 mCi, iv after 20 mins by DANIR 3b staining based autoradiographic analysis; format: functional, organism-based; details: tested as the 18F-labelled form
[4] = target: T1, Amyloid-beta precursor protein; test: Displacement of [125I]BOB-4 from Amyloid beta (1 to 42) (unknown origin)
[5] = species: Mus musculus; test: Binding affinity to amyloid beta plaques in white matter of C57BL6 APPswe/PSEN1 Tg mouse brain by DANIR 3b staining based autoradiography analysis; format: tissue-based; details: tested as the 18F-labelled form
[6] = target: T1, Amyloid-beta precursor protein; test: Binding affinity to amyloid beta plaques in healthy human brain by DANIR 3b staining based autoradiographic analysis; details: tested as the 18F-labelled form
[7] = target: T1, Amyloid-beta precursor protein; test: Binding affinity to amyloid beta plaques in alzheimer's disease patient cerebral cortex by DANIR 3b staining based autoradiographic analysis; format: tissue-based; details: tested as the 18F-labelled form
[8] = species: Mus musculus; test: Binding affinity to amyloid beta plaques in C57BL6 mouse brain by DANIR 3b staining based autoradiographic analysis; format: tissue-based; details: tested as the 18F-labelled form
[9] = species: Mus musculus; test: Binding affinity to amyloid beta plaques in C57BL6 APPswe/PSEN1 Tg mouse cerebral cortex by DANIR 3b staining based autoradiographic analysis; format: tissue-based; details: tested as the 18F-labelled form
[10] = tested on: Mus musculus; test: In vivo binding affinity to amyloid beta in wild type C57BL6 mouse cerebellum at 1 mCi, iv after 20 mins by DANIR 3b staining based autoradiographic analysis; format: functional, organism-based; details: tested as the 18F-labelled form
[11] = tested on: Mus musculus; test: In vivo binding affinity to amyloid beta plaques in C57BL6 Appswe/PSEN1 Tg mouse cerebellum at 1 mCi, iv after 20 mins by DANIR 3b staining based autoradiographic analysis; format: functional, organism-based; details: tested as the 18F-labelled form
[12] = tested on: Mus musculus; test: In vivo binding affinity to amyloid beta in wild type C57BL6 mouse hippocampus at 1 mCi, iv after 20 mins by DANIR 3b staining based autoradiographic analysis; format: functional, organism-based; details: tested as the 18F-labelled form
[13] = tested on: Mus musculus; test: In vivo binding affinity to amyloid beta in wild type C57BL6 mouse brain cortex at 1 mCi, iv after 20 mins by DANIR 3b staining based autoradiographic analysis; format: functional, organism-based; details: tested as the 18F-labelled form
[14] = tested on: Intestine; test: Biodistribution in iv dosed ICR mouse intestine assessed per organ measured at 30 mins; format: ADME, organism-based; details: in vivo, 0.5 h
[15] = tested on: Intestine; test: Biodistribution in iv dosed ICR mouse intestine assessed per organ measured at 60 mins; format: ADME, organism-based; details: in vivo, 1 h
[16] = tested on: Brain; test: Biodistribution in iv dosed ICR mouse brain measured at 2 mins; format: ADME, organism-based; details: in vivo
[17] = tested on: Liver; test: Biodistribution in iv dosed ICR mouse liver measured at 10 mins; format: ADME, organism-based; details: in vivo
[18] = tested on: Stomach; test: Biodistribution in iv dosed ICR mouse stomach assessed per organ measured at 10 mins; format: ADME, organism-based; details: in vivo
[19] = tested on: Stomach; test: Biodistribution in iv dosed ICR mouse stomach assessed per organ measured at 60 mins; format: ADME, organism-based; details: in vivo, 1 h
[20] = tested on: Stomach; test: Biodistribution in iv dosed ICR mouse stomach assessed per organ measured at 30 mins; format: ADME, organism-based; details: in vivo, 0.5 h
[21] = tested on: Intestine; test: Biodistribution in iv dosed ICR mouse intestine assessed per organ measured at 10 mins; format: ADME, organism-based; details: in vivo
[22] = Partition coefficient, log D of the compound; format: physicochemical; details: octanol/water
[23] = tested on: Intestine; test: Biodistribution in iv dosed ICR mouse intestine assessed per organ measured at 2 mins; format: ADME, organism-based; details: in vivo
[24] = tested on: Stomach; test: Biodistribution in iv dosed ICR mouse stomach assessed per organ measured at 2 mins; format: ADME, organism-based; details: in vivo
[25] = Metabolic stability in ICR mouse liver assessed as compound remaining at 35 to 45 Mbq, iv measured at 2 mins by HPLC analysis; format: ADME, organism-based; details: read-out: Stability
[26] = Metabolic stability in ICR mouse plasma assessed as compound remaining at 35 to 45 Mbq, iv measured at 2 mins by HPLC analysis; format: ADME, organism-based; details: read-out: Stability
[27] = Metabolic stability in ICR mouse brain assessed as compound remaining at 35 to 45 Mbq, iv measured at 60 mins by HPLC analysis; format: ADME, organism-based; details: read-out: Stability
[28] = tested on: Plasma; test: Retention time of the compound in ICR mouse plasma at 35 to 45 Mbq, iv by HPLC analysis; format: ADME, organism-based
[29] = Metabolic stability in ICR mouse brain assessed as compound remaining at 35 to 45 Mbq, iv measured at 2 mins by HPLC analysis; format: ADME, organism-based; details: read-out: Stability
[30] = Metabolic stability in ICR mouse liver assessed as compound remaining at 35 to 45 Mbq, iv measured at 30 mins by HPLC analysis; format: ADME, organism-based; details: read-out: Stability
[31] = Metabolic stability in ICR mouse brain assessed as compound remaining at 35 to 45 Mbq, iv measured at 30 mins by HPLC analysis; format: ADME, organism-based; details: read-out: Stability
[32] = Metabolic stability in ICR mouse feces assessed as compound remaining at 35 to 45 Mbq, iv measured at 30 mins by HPLC analysis; format: ADME, organism-based; details: faeces, read-out: Stability
[33] = tested on: Liver; test: Retention time of the compound in ICR mouse liver at 35 to 45 Mbq, iv by HPLC analysis; format: ADME, organism-based
[34] = Metabolic stability in ICR mouse liver assessed as compound remaining at 35 to 45 Mbq, iv measured at 60 mins by HPLC analysis; format: ADME, organism-based; details: read-out: Stability
[35] = tested on: Brain; test: Ratio of drug level in iv dosed ICR mouse brain at 2 to 60 mins; format: ADME, organism-based; details: in vivo
[36] = Metabolic stability in ICR mouse plasma assessed as compound remaining at 35 to 45 Mbq, iv measured at 60 mins by HPLC analysis; format: ADME, organism-based; details: read-out: Stability
[37] = Metabolic stability in ICR mouse plasma assessed as compound remaining at 35 to 45 Mbq, iv measured at 30 mins by HPLC analysis; format: ADME, organism-based; details: read-out: Stability
[38] = tested on: Brain; test: Ratio of drug level in CD1 mouse brain at 370 kBq measured at 2 to 60 mins; format: ADME; details: in vivo

- Activity [1]: inactive
- Ki [4]: 21 nM
- inhibition [4]: Dose-dependent effect
- Activity [5]: inactive
- Activity [6]: inactive
- Activity [7]: Active
- Activity [8]: inactive
- Activity [9]: Active
SMILES: CN(C)c1ccc(OCc2ccc(OCCF)cc2)cc1
- Activity [2]: Active
- Activity [3]: Active
- Activity [10]: inactive
- Activity [11]: Active
- Activity [12]: inactive
- Activity [13]: inactive

- Ki [4]: 358 nM
- inhibition [4]: Dose-dependent effect
SMILES: CN(C)c1ccc(COc2ccc(OCCOCCOCCF)cc2)cc1

- Drug uptake [14]: 2.35 %ID
- remaining at 2 min [25]: 22.6%
- remaining at 2 min [26]: 10.8%
- remaining at 1 h [27]: 16.7%
- Drug uptake [15]: 1.72 %ID
- Drug uptake [16]: 4.51 % ID/g
- Drug uptake [17]: 3.23 % ID/g
- Drug uptake [18]: 0.54 %ID
- Retention_time [28]: 9.1 min
- remaining at 2 min [29]: 76.7%
- Drug uptake [19]: 0.22 %ID
- Drug uptake [20]: 0.37 %ID
- Drug uptake [21]: 3.12 %ID
- remaining at 0.5 h [30]: 8.4%
- remaining at 0.5 h [31]: 20.6%
- logD [22]: 3.11
- Drug uptake [23]: 5.52 %ID
- remaining at 0.5 h [32]: 14.6%
- Retention_time [33]: 9.1 min
- Drug uptake [24]: 0.92 %ID
- remaining at 1 h [34]: 10.6%
SMILES: CN(C)c1ccc(COc2ccc(OCC[18F])cc2)cc1

- Activity [1]: inactive
- Ki [4]: 25.7 nM
- inhibition [4]: Dose-dependent effect
- Activity [5]: inactive
- Activity [6]: inactive
- Activity [7]: Active
- Activity [8]: inactive
- Activity [9]: Active
SMILES: CN(C)c1ccc(COc2ccc(OCCF)cc2)cc1

- Drug uptake [14]: 5.63 %ID
- remaining at 2 min [25]: 63.5%
- remaining at 2 min [26]: 56.5%
- remaining at 1 h [27]: 14.8%
- Drug uptake [15]: 6.71 %ID
- Drug uptake [16]: 9.14 % ID/g
- Ratio [35]: 5.1
- Drug uptake [17]: 6.38 % ID/g
- Drug uptake [18]: 4.11 %ID
- remaining at 2 min [29]: 95.4%
- Drug uptake [19]: 3.58 %ID
- remaining at 1 h [36]: 5.1%
- Drug uptake [20]: 4.69 %ID
- Drug uptake [21]: 5.16 %ID
- remaining at 0.5 h [30]: 9.2%
- remaining at 0.5 h [31]: 31.6%
- logD [22]: 2.75
- Drug uptake [23]: 5.49 %ID
- remaining at 0.5 h [32]: 22.7%
- Drug uptake [24]: 2.48 %ID
- remaining at 0.5 h [37]: 5.8%
- remaining at 1 h [34]: 4.4%
SMILES: CN(C)c1ccc(OCc2ccc(OCC[18F])cc2)cc1

- Ki [4]: 191 nM
- inhibition [4]: Dose-dependent effect
SMILES: CN(C)c1ccc(COc2ccc(OCCOCCF)cc2)cc1

- Ki [4]: 153 nM
- inhibition [4]: Dose-dependent effect
SMILES: COc1ccc(OCc2ccc(OCCF)cc2)cc1

- Ki [4]: 119 nM
- inhibition [4]: Dose-dependent effect
SMILES: COc1ccc(COc2ccc(OCCF)cc2)cc1

Continued, compound first:

SMILES: COc1ccc(OCc2ccc(OCC[18F])cc2)cc1
- Drug uptake [14]: 6.85 %ID
- Drug uptake [15]: 10.75 %ID
- Drug uptake [16]: 7.54 % ID/g
- Drug uptake [17]: 4.97 % ID/g
- Drug uptake [18]: 0.96 %ID
- Drug uptake [19]: 0.98 %ID
- Drug uptake [20]: 1.29 %ID
- Drug uptake [21]: 4.83 %ID
- logD [22]: 3.05
- Drug uptake [23]: 7.31 %ID
- Drug uptake [24]: 1.32 %ID

SMILES: COc1ccc(COc2ccc(OCCOCCF)cc2)cc1
- Ki [4]: 438 nM
- inhibition [4]: Dose-dependent effect

SMILES: CNc1ccc(-c2nc3ccc(O)cc3s2)cc1
- inhibition [4]: Dose-dependent effect

SMILES: COc1ccc(COc2ccc(OCCOCCOCC[18F])cc2)cc1
- Drug uptake [14]: 16.43 %ID
- Drug uptake [15]: 26.12 %ID
- Drug uptake [16]: 9.71 % ID/g
- Drug uptake [17]: 11.16 % ID/g
- Drug uptake [18]: 1.1 %ID
- Drug uptake [19]: 0.9 %ID
- Drug uptake [20]: 1.52 %ID
- Drug uptake [21]: 6.18 %ID
- logD [22]: 3.04
- Drug uptake [23]: 6.3 %ID
- Drug uptake [24]: 1.53 %ID

SMILES: COc1ccc(COc2ccc(OCC[18F])cc2)cc1
- Drug uptake [14]: 7.66 %ID
- Drug uptake [15]: 13 %ID
- Drug uptake [16]: 9.95 % ID/g
- Drug uptake [17]: 7.47 % ID/g
- Drug uptake [18]: 1.08 %ID
- Drug uptake [19]: 0.77 %ID
- Drug uptake [20]: 0.78 %ID
- Drug uptake [21]: 4.41 %ID
- logD [22]: 3.65
- Drug uptake [23]: 7.09 %ID
- Drug uptake [24]: 1.22 %ID

SMILES: CN(C)c1ccc(-c2cn3cc(I)ccc3n2)cc1
- inhibition [4]: Dose-dependent effect

SMILES: COc1ccc(COc2ccc(OCCOCCOCCF)cc2)cc1
- Ki [4]: 770 nM
- inhibition [4]: Dose-dependent effect

SMILES: CNc1ccc(/C=C/c2ccc(OCCOCCOCCF)nc2)cc1 [FLORBETAPIR]
- Ki [4]: 11.4 nM
- inhibition [4]: Dose-dependent effect

SMILES: CNc1ccc(/C=C/c2ccc(OCCOCCOCC[18F])nc2)cc1 [FLORBETAPIR F 18]
- Ratio [38]: 3.9
